Legend:
[1] = Sprague-Dawley rats, oral administration of 3.0 mg/kg; cited from earlier work
[2] = cited from earlier work
rats or mice = settings: in rodenticide bait, alone or combined with warfarin; cited from earlier work
rats (Rattus norvegicus) = experiment: Lab test of stop feeding effect (choice feeding test); assay type: in vivo; settings: 100 mg/kg of calciferol
Description: A lab trial was set up to test the stop-feeding effect induced by calciferol-containing bait in the absence of an anticoagulant rodenticide. Three groups (Group control, Group a, and Group b) of ten rats (Rattus norvegicus) each were subjected to the experiment. The control group and Group a consisted of male rats; Group b consisted of female rats. The groups were kept in three connected pens (20 cm×60 cm) with shelter, saw-dust, water and feed ad libitum under standard laboratory conditions. The rats acclimatized in the test setup for ten days, with standard lab chew ad libitum.
The test-bait formulation was a paste-bait, based on vegetable fat and cereal flour, and contained cholecalciferol at 100 mg/kg. During the choice feeding test, the rats of both treatment groups (a and b) received the cholecalciferol-containing bait and the challenge diet (standard rat chew; Höveler, Germany) ad libitum. The control group received the same bait as the treatment groups but without cholecalciferol, and the challenge diet. Consumption of bait and challenge diet was recorded in all groups daily for 14 days. The daily bait consumption results are depicted in FIG. 1.
FIG. 1 depicts the daily consumption of bait (grams) in the laboratory study of Experiment 1, where three groups of rats (n=10 each) were given a choice between standard lab diet, and bait with or without cholecalciferol (100 mg/kg). […]

rats and mice = settings: cited from earlier work

O=c1oc2ccccc2c(O)c1[C@@H]1Cc2ccccc2[C@H](c2ccc(-c3ccc(Br)cc3)cc2)C1 (single isomer, unassigned) [cis-isomer of brodifacoum]
liver half-life [1]: 120.82 h

O=c1oc2ccccc2c(O)c1C(CC(O)c1ccc(-c2ccc(Br)cc2)cc1)c1ccccc1 (single isomer, unassigned) [cis-isomer of bromadiolone]
liver half-life [1]: 26.89 h

O=c1oc2ccccc2c(O)c1[C@@H]1C[C@@H](c2ccc(OCc3ccc(C(F)(F)F)cc3)cc2)Cc2ccccc21 (single isomer, unassigned) [cis-isomer of flocoumafen]
liver half-life [1]: 76.73 h

O=c1oc2ccccc2c(O)c1C1CC(c2ccc(-c3ccc(Br)cc3)cc2)Cc2ccccc21 (single isomer, unassigned) [trans-isomer of brodifacoum]
liver half-life [1]: 68.73 h

O=c1oc2ccccc2c(O)c1C1CC(c2ccc(-c3ccc(Br)cc3)cc2)Cc2ccccc21 (stereo not shown) [brodifacoum, 3-[3-[4-(4-bromophenyl)phenyl]-1,2,3,4-tetrahydronaphthalen-1-yl]-4-hydroxychromen-2-one]
half-life in the liver ([2]; liver): 307.4 days | plasma half-life [2]: 91.7 days

C=C1CC[C@H](O)C/C1=C/C=C1\CCC[C@]2(C)[C@@H]([C@H](C)/C=C/[C@H](C)C(C)C)CC[C@@H]12 [calciferol]
minimum concentration likely to give good results in the field (rats or mice): 0.1% | stop feeding effect (rats (Rattus norvegicus)): significant stop feeding effect within two days | acute oral LD50 (rats and mice): 30 to 100 mg/kg

O=c1oc2ccccc2c(O)c1C1CCCc2ccccc21 (stereo not shown) [coumatetralyl, 4-Hydroxy-3-(1,2,3,4-tetrahydro-1-naphthyl) coumarin]
plasma half-life [2]: 0.52 days

— patent publication US20260191189A1, “CALCIFEROLS TO REDUCE ENVIRONMENTAL IMPACT OF RODENTICIDES” (priority 2021, published 2026)
